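Growth conditions: 96-well plates. Treatment: test compound, 48 hours, 5 concentrations. Analysis: linear interpolation between bracketing concentrations; unreached endpoints set to highest concentration. GI50: concentration for 50% inhibition of growth.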 Active and inactive are the calls of the source. No stated cut-off is given here; in the data, active = GI50 up to about 1.1 µM and inactive = higher.
Assays:
Test in all cases: DTP human tumour cell line panel, 48 h
SF-295 = test system: SF-295
U-251 = test system: U-251
RXF 393 = test system: RXF 393
COLO 205 = test system: COLO 205
IGROV-1 = test system: IGROV-1
CAKI-1 = test system: CAKI-1
NCI-H226 = test system: NCI-H226
OVCAR-8 = test system: OVCAR-8
UACC-257 = test system: UACC-257
UACC-62 = test system: UACC-62
NCI-H460 = test system: NCI-H460
CCRF-CEM = test system: CCRF-CEM
HOP-62 = test system: HOP-62
UO-31 = test system: UO-31
OVCAR-4 = test system: OVCAR-4
SW-620 = test system: SW-620
SK-MEL-5 = test system: SK-MEL-5
SF-539 = test system: SF-539

Measured: GI50

COC(=O)C(=O)C(C(=O)C(=O)Nc1ccc([N+](=O)[O-])cc1[N+](=O)[O-])c1nc2ccc([N+](=O)[O-])cc2nc1O (stereo unspecified)
inactive: SF-295 > 100 µM | U-251 > 100 µM | RXF 393 43.3 µM | COLO 205 > 100 µM | IGROV-1 > 100 µM | CAKI-1 > 100 µM | NCI-H226 > 100 µM | OVCAR-8 > 100 µM | UACC-257 > 100 µM | UACC-62 > 100 µM | NCI-H460 > 100 µM | CCRF-CEM > 100 µM | HOP-62 > 100 µM | UO-31 53 µM | OVCAR-4 > 100 µM | SW-620 > 100 µM

O=C1CCCC/C1=C\c1ccc(Cl)c(Cl)c1
inactive: U-251 16.6 µM | COLO 205 35.1 µM | IGROV-1 25.2 µM | CAKI-1 19.2 µM | OVCAR-8 23.6 µM | SK-MEL-5 17.2 µM | UACC-62 23.4 µM | NCI-H460 20.1 µM | CCRF-CEM 21.3 µM | HOP-62 57.7 µM | UO-31 17.8 µM | OVCAR-4 18.2 µM | SF-539 17.2 µM | SW-620 21.6 µM

CC1=C2N3C[C@@H](n4c(=O)n(C)c(=O)n43)C23CCC1n1c(=O)n(C)c(=O)n13
inactive: SF-295 > 100 µM | COLO 205 48 µM | IGROV-1 > 100 µM | CAKI-1 > 100 µM | NCI-H226 > 100 µM | OVCAR-8 > 100 µM | UACC-257 > 100 µM | SK-MEL-5 > 100 µM | UACC-62 > 100 µM | NCI-H460 > 100 µM | CCRF-CEM > 100 µM | HOP-62 > 100 µM | UO-31 > 100 µM | OVCAR-4 > 100 µM | SF-539 > 100 µM | SW-620 21.9 µM

N=C(NC(=N)Nc1ccc(S(=O)(=O)Nc2cnc3ccccc3n2)cc1)Nc1ccc(Br)cc1
inactive: SF-295 > 100 µM | U-251 > 100 µM | COLO 205 > 100 µM | IGROV-1 > 100 µM | CAKI-1 > 100 µM | NCI-H226 > 100 µM | OVCAR-8 > 100 µM | UACC-257 > 100 µM | SK-MEL-5 > 100 µM | UACC-62 > 100 µM | NCI-H460 > 100 µM | CCRF-CEM > 100 µM | HOP-62 > 100 µM | UO-31 > 100 µM | OVCAR-4 > 100 µM | SF-539 > 100 µM | SW-620 > 100 µM

O=C(c1ccccc1)c1c(CC(O)c2ccncc2)n(C(=O)c2ccccc2)c2ccccc12 (stereo unspecified)
inactive: SF-295 12.1 µM | U-251 17.7 µM | COLO 205 17.9 µM | IGROV-1 16.7 µM | CAKI-1 22.3 µM | NCI-H226 14.7 µM | OVCAR-8 30 µM | UACC-257 17.5 µM | SK-MEL-5 16.1 µM | UACC-62 16.5 µM | NCI-H460 18.7 µM | CCRF-CEM 25.1 µM | HOP-62 16.4 µM | UO-31 14.6 µM | OVCAR-4 15.8 µM | SF-539 17.9 µM | SW-620 18.7 µM

O=C(CC(=O)N1N=C(c2ccccc2)C(/N=N/c2ccccc2Cl)C1=O)Nc1ccccc1Cl (stereo unspecified)
inactive: SF-295 27.4 µM | U-251 32.1 µM | COLO 205 31.6 µM | IGROV-1 63.1 µM | CAKI-1 30.8 µM | NCI-H226 42.7 µM | OVCAR-8 31.7 µM | UACC-257 48.4 µM | SK-MEL-5 17.1 µM | UACC-62 37.7 µM | NCI-H460 56.2 µM | HOP-62 33 µM | UO-31 57.9 µM | OVCAR-4 20.7 µM | SF-539 29.9 µM | SW-620 29.9 µM

CC1=C(Cl)C=CP(=O)(Oc2ccccc2)C1 (stereo unspecified)
inactive: SF-295 > 100 µM | U-251 > 100 µM | COLO 205 27.6 µM | IGROV-1 > 100 µM | CAKI-1 > 100 µM | OVCAR-8 23.3 µM | UACC-257 71.6 µM | SK-MEL-5 55.6 µM | UACC-62 43.2 µM | NCI-H460 32.6 µM | CCRF-CEM > 10 µM | HOP-62 > 100 µM | UO-31 38.3 µM | OVCAR-4 > 100 µM | SW-620 39.4 µM
